The values below come from ChEMBL document CHEMBL4049449, “Discovery of a Novel Class of Survival Motor Neuron 2 Splicing Modifiers for the Treatment of Spinal Muscular Atrophy” (J Med Chem, 2017).

Molecules are shown by their SMILES. Activity calls are given as the source filed them. The rule behind the calls is not given here.

The species entered for assay [1] is Homo sapiens. The experiment in a line: Modulation of patient derived full length SMN2 pre mRNA splicing assessed as restoration of functional SMN2 to protein level.
The species entered for assay [2] is Homo sapiens. The experiment in a line: Modulation of patient derived full length SMN2 pre mRNA splicing assessed as inclusion of exon 7.

As to `Cc1cn2cc(NC(=O)c3ccc(N4CCNCC4)cc3)nc2c(C)n1`, the EC1.5 in the assay filed under Homo sapiens [1] was found to be 775 nM.
On to `Cc1cn2cc(COc3ccc(N4CCNCC4)cc3)nc2c(C)n1`, for which the EC1.5 result in the assay filed under Homo sapiens [1] and in the assay listed under Homo sapiens [2] was “inactive” in each case.
`Cc1cn2cc(NC(=O)c3ccc(N4CCN(N5CCCC5)CC4)cc3F)nc2c(C)n1`: the EC1.5 in the assay filed under Homo sapiens [1] came to 200 nM; in the assay filed under Homo sapiens [2], 100 nM.
As to `Cc1cn2cc(CCc3ccc(N4CCNCC4)cc3)nc2c(C)n1`, the EC1.5 entry in the assay filed under Homo sapiens [1] and in the assay filed under Homo sapiens [2] was “inactive” throughout.
With `Cc1cn2cc(NC(=O)c3ccc(N4CCN(C)CC4)cn3)nc2c(C)n1`, the EC1.5 in the assay filed under Homo sapiens [1] amounted to 1520 nM.
Regarding `Cc1cn2cc(-c3ccc(NC(=O)C4CCN(C)CC4)cc3)nc2c(C)n1`, the EC1.5 result in the assay filed under Homo sapiens [1] and in the assay listed under Homo sapiens [2] was “inactive” each time.
For the compound `Cc1cn2cc(N(C)C(=O)c3ccc(N4CCN(C)CC4)cc3)nc2c(C)n1`, the EC1.5 entry in the assay filed under Homo sapiens [1] and in the assay filed under Homo sapiens [2] was “inactive” throughout.
Take `Cc1cn2cc(NC(=O)c3ccc(N4CCNC(C(C)C)C4)cc3F)ncc2n1` (configuration not stated): the EC1.5 in the assay filed under Homo sapiens [1] was 265 nM; in the assay filed under Homo sapiens [2], 106 nM.
In the case of `Cc1cn2cc(C(=O)Nc3ccc(C4CCN(C)CC4)cc3)nc2c(C)n1`, the EC1.5 result in the assay filed under Homo sapiens [1] and in the assay filed under Homo sapiens [2] was “inactive” throughout.
On to `Cc1cn2cc(-c3ccc4c(c3)CCN(C3CCNCC3)C4=O)nc2c(C)n1`, for which the EC1.5 entry in the assay filed under Homo sapiens [1] is “inactive”. The EC1.5 in the assay filed under Homo sapiens [2] turned out to be 530 nM.
Turning to `Cc1cn2cc(NC(=O)c3c(F)cc(N4CCNCC4)cc3Cl)ncc2n1`, the EC1.5 in the assay listed under Homo sapiens [1] was 8760 nM; in the assay listed under Homo sapiens [2] it was 2030 nM.
In the same order, the values of `Cc1cn2cc(C#Cc3ccc(N4CCN(C)CC4)cc3)nc2c(C)n1` are “inactive” and “inactive”.
In the same order, the values of `Cc1cn2cc(NC(=O)c3ccc(N4CCNC(C)C4)c(F)c3F)ncc2n1` (configuration not stated) are 603 nM and 165 nM.
As to `Cc1cn2cc(-c3ccc4c(c3)OC(=O)N(C3CCNCC3)C4)nc2c(C)n1`, the EC1.5 result in the assay listed under Homo sapiens [1] is “inactive”. Further, the EC1.5 in the assay filed under Homo sapiens [2] was found to be 4700 nM.
In the same order, the values of `Cc1cn2cc(NC(=O)c3cc(F)c(N4CCNC(C)C4)cc3F)ncc2n1` (configuration not stated) are 495 nM and 85 nM.
On to `Cc1cn2cc(-c3ccc(NC(=O)N4CCN(C)CC4)cc3)nc2c(C)n1`, for which the EC1.5 entry in the assay listed under Homo sapiens [1] and in the assay listed under Homo sapiens [2] was “inactive” each time.
Regarding `Cc1cn2cc(NC(=O)c3ccc(C4CCN(C)C4)cc3F)nc2c(C)n1` (configuration not stated), the EC1.5 amounted to 176 nM in the assay filed under Homo sapiens [1] and 91 nM in the assay filed under Homo sapiens [2].
The matching figures for `Cc1cn2cc(NC(=O)c3ccc(N4CCN(C)CC4)cc3F)nc2c(C)n1`: 560 nM and 232 nM.
The matching figures for `Cc1cn2cc(/C=C/c3ccc(N4CCNCC4)cc3)nc2c(C)n1`: 8420 nM and 4410 nM.
In the same order, the values of `Cc1cn2cc(-c3ccc(C(=O)NC4CCN(C)CC4)cc3)nc2c(C)n1` are “inactive” and “inactive”.
In the case of `Cc1cn2cc(NC(=O)c3ccc(N4CCNC(C)(C)C4)cc3F)ncc2n1`, the EC1.5 is 504 nM in the assay listed under Homo sapiens [1] and 31 nM in the assay listed under Homo sapiens [2].
In the same order, the values of `COc1nc(N2CCNCC2)ccc1C(=O)Nc1cn2cc(C)nc2cn1` are 555 nM and 129 nM.
In the case of `Cc1cn2cc(NC(=O)c3ccc(N4CCNCC4)cc3)ncc2n1`, the EC1.5 in the assay filed under Homo sapiens [1] is 2250 nM; in the assay listed under Homo sapiens [2], 1040 nM.
Take `Cc1cn2cc(NC(=O)c3ccc(C4CCNCC4)cc3)nc2c(C)n1`: the EC1.5 came out at 3800 nM in the assay listed under Homo sapiens [1] and 820 nM in the assay listed under Homo sapiens [2].
On to `Cc1cn2cc(NC(=O)c3ccc(N4CCN[C@H](C)C4)cc3F)ncc2n1`, for which the values for the EC1.5 in the assay filed under Homo sapiens [1] and in the assay listed under Homo sapiens [2] were 122 nM and 15 nM, respectively.
In the same order, the values of `Cc1cn2cc(NC(=O)c3ccc(N4CCC(N5CCCC5)C4)cc3F)nc2c(C)n1` (configuration not stated) are 86 nM and 29 nM.
The matching figures for `Cc1cn2cc(C(=O)Nc3ccc(N4CCN(C)CC4)cc3)nc2c(C)n1`: “inactive” and “inactive”.
